# Residues, ends and D or L forms follow the SMILES beside them. *: point of attachment. Boc = CC(C)(C)OC(=O)*
row,melting point,Compound
1,173 °C,c1ccc2c3c([nH]c2c1)C(c1ccc2c(c1)OCO2)NCC3 (centres undefined)
2,99 to 101 °C,CC(C)(C)OC(=O)CC[C@@H](NC(=O)OCc1ccccc1)c1nnn[nH]1
3,236 to 237 °C,CC1(C)OC(=S)Nc2ccc(-c3cccc(C#N)c3)cc21
4,88 to 89 °C,CS(=O)(=O)OCCCCCCc1ccc(OCc2coc(/C=C/c3ccccc3)n2)cc1
5,67 to 68 °C,OC(c1ccc(Cl)cc1)c1cccc(Br)c1 (centres undefined)
6,128 to 129 °C,O=C(O)c1ccc([N+](=O)[O-])cc1C(F)(F)F
7,208 °C,CC(=O)N[C@H]1CC[C@H](CCN2CCN(c3nc(C)cc4occc34)CC2)CC1
8,164 to 167 °C,Cc1cc(=O)oc2nn(Cc3cccs3)c(C)c12
9,75 to 77 °C,O=[N+]([O-])c1ccc2c(c1)C(Cl)=NC(CF)(CF)O2
10,107 °C,Cc1cc(-n2ccnc2)c2cccc(OCc3c(Cl)ccc(S(=O)(=O)N4CCC[C@H]4C(=O)NCC4CCN(Cc5cccnc5)CC4)c3Cl)c2n1
11,133 to 134 °C,COc1ccccc1N1CCN(CCNC(=O)c2cccc(OC)c2OC)CC1
12,177 to 178 °C,COc1ccc2c(c1)c(CC(=O)NCC(C)(C)S)c(C)n2C(=O)c1ccc(Cl)cc1
13,165 to 167 °C,NS(=O)(=O)c1ccc(-c2c(CC(O)c3ccc(Cl)cc3)noc2-c2ccccc2)cc1 (centres undefined)
14,193 to 196 °C,O=C(c1ccccc1)c1cc(Cl)cc2c(=O)cc[nH]c12
15,209 to 210 °C,O=c1c(CCCc2ccncc2)cc2cccnc2n1-c1cccc([N+](=O)[O-])c1
16,> 300 °C,CCOC(=O)c1ccc(C(=O)O)s1
17,158 to 160 °C,COc1ccc(C2(O)CCN(CC3CN(c4cccc(OC)c4)C(=O)O3)CC2)cc1 (centres undefined)
18,137 to 138 °C,O=C1C(c2cccc(C(F)(F)F)c2Cl)=NN(CCCCC(F)(F)F)C2C=C(Cl)C=CC12 (centres undefined)
19,211 to 214 °C,COC(=O)C(Cc1ccccc1)NC(=O)C(Cc1ccccc1)NC(=O)C(CC(N)=O)NC(=O)CNC(=O)OC(C)(C)C (centres undefined) (Boc-GNFF-OMe; configuration not given here)
20,138 to 140 °C,Cc1ccc(S(=O)(=O)Nc2ccc([C@@H](C)C(N)=O)cc2)cc1

row,melting point,Compound
1,108 to 109 °C,CS(=O)(=O)c1cc(OCc2ccccc2)cs1
2,138 to 139 °C,Cc1[nH]nc(Nc2ccccc2)c1C(=O)OC(C)C
3,234 °C,NC(=O)Cc1ccc(Nc2nc(OCC3CCCCC3)c3nc[nH]c3n2)cc1
4,295 °C,COC(=O)C1=C(C)Nc2cc[nH]c(=O)c2C1c1ccccc1C(F)(F)F (centres undefined)
5,211 °C,CCOC(=O)c1c2n(c3cc(Br)c(F)cc3c1=O)C(C)CS2 (centres undefined)
6,116 to 118 °C,CC(C)(C)c1ccc(O)c(C=NO)c1
7,116 to 118 °C,O=C(NCCc1cccc2ccc(OC3CCCCC3)cc12)C1CCC1
8,215 to 216 °C,CCCc1nc2cnc3cc(Br)ccc3c2n1CC1CCN(C(=O)OC(C)(C)C)CC1
9,90 to 92 °C,CC(C)(C)OC(=O)N1CCN2C[C@H](COc3ccc(F)cc3)CC[C@H]2C1
10,181 to 182 °C,OCCNc1ccnc2cc(C(F)(F)F)ccc12
11,184 to 186 °C,O=c1ccc2cc(OC3O[C@H](CO)[C@@H](O)[C@H](O)[C@H]3O)c(OCc3ccccc3)cc2o1 (some centres undefined)
12,98 to 100 °C,CC(=O)OCC1OC(n2c(Cl)nc3cc(Cl)ccc32)C(OC(C)=O)C1OC(C)=O (centres undefined)
13,107 to 109 °C,CCCCN(CC)CC(=O)N1c2ccccc2N(C)C(=O)c2cnc(-c3ccccc3)nc21
14,136 to 139 °C,CCOC(=O)C(C)c1ccc(NC2OC(=O)c3ccccc32)cc1 (centres undefined)
15,160 to 162 °C,CN(C)c1ccc2c(c1)C(=O)C(n1ccnc1)CC2 (centres undefined)
16,100 to 102 °C,O=C(O)CCCc1cccc(OCc2ccccc2)c1
17,44 °C,CCCCCCCCCCCCCCCCCC(=O)NCC(C)(C)CO
18,50 °C,CCc1c([N+](=O)[O-])ccc2cc[nH]c12
19,289 to 291 °C,CC(C)(C)c1ccc(-c2ccc3c(c2)C=C(C(=O)O)CCS3(=O)=O)cc1
